Read-outs that look alike come from different tables or passages of the source. Where only a bound is given, the exact number is not on record here.

Assay [1] concerns THP-1 cells. Kind of assay: MCP-1 induced THP-1 cell migration (Transwell) assay. In kind it is cell-based, human. The settings on record: for EC50 / Emax: Homo sapiens, THP-1. The method, then:
Leukocyte migration was measured using the 96-well format micro Transwell^RTM assay system from Neuroprobe (Gaithersburg, MD, USA). In principle, this assay consists of two chambers separated by a porous membrane. The chemoattractant is placed in the lower compartment and the cells are placed in the upper compartment. After incubation for a period at 37°C the cells move towards the chemoattractant, and the number of cells in the lower compartment is proportional to the chemoattractant activity (relative to a series of controls).
The method was performed essentially as previously described (Reckless & Grainger (1999) Biochem. J. 340:803-11).
First, the cell suspension to be placed in the upper compartment was prepared. The THP-1 cells were pelleted by centrifugation (770 x g; 4 mins) and washed with Geys Balanced Salt Solution with 1mg/ml BSA (GBSS + BSA). This wash was then repeated, and the cells re-pelleted before being resuspended in a small volume of GBSS + BSA for counting, for example using a standard haemocytometer.
The volume of GBSS + BSA was then adjusted depending on the number of cells present so that the cells were at final density of 4.45 x 10^6 cells per ml of GBSS + BSA. This ensured that there were 100,000 THP-1 cells in each 25µl of the solution to be placed in the upper chamber of the plate.
The suspension of THP-1 cells at 4.45 x 10^6 cells/ml was divided into three pots. To one pot the BSCI was added at an appropriate final concentration, in an appropriate vehicle (for example (S)- 3-(2',2'-dimethylpropanoylamino)-tetrahydropyridin-2-one was added at 1nM from a stock solution in GBSS). To the second pot, the BSCI was added at the same concentration as in the first pot, but additionally the sstr2 antagonist was also added (for example BIM 23454 [Tulipano et al. (2002) 143:1218-24] or BIM 23627 were added at 66nM final concentration from a stock solution in GBSS). To the third pot, GBSS + BSA plus vehicle as appropriate was added so that the volumes in three pots are equal, acting as a control.
Next, the chemoattractant solution to be placed in the lower compartment was prepared. […]. Note that, as recommended by Frow et al (Med. Res. Rev. 24:276-98) this is the concentration of MCP-1 which induces maximal migration in this system. This solution was divided into three pots, as for the cell suspension. To one pot, the BSCI was added to the same final concentration as was added to the cell suspension, in the second pot the BSCI and the sstr2 antagonist were both added at the same concentration as previously added to the cell suspension, while to the remaining pot GBSS + BSA plus vehicle as appropriate was added so that the volumes in the three pots were equal. Note that the volume of liquid that needs to be added to make the addition of the BSCI and the sstr2 antagonist compounds needs to be taken into account, when establishing the final concentration of MCP-1 in the solution for the lower compartment and the final concentration of cells in the upper compartment.
Once the chemoattractant solutions for the lower wells and cell solutions for the upper chambers were prepared, the migration chamber was assembled. 29 µl of the appropriate chemoattractant solution was placed into the lower well of the chamber. Assays were performed with at least triplicate determinations of each condition. Once all the lower chambers were filled, the porous membrane was applied to the chamber in accordance with the manufacturer's instructions. Finally, 25 µl of the appropriate cell solution was applied to each upper chamber. A plastic lid was placed over the entire apparatus to prevent evaporation.
The assembled chamber was incubated at 37 °C, 5% CO2, for 2 hours. A suspension of cells in GBSS + BSA was also incubated under identical conditions in a tube: these cells were used to construct a standard curve for determining the number of cells that migrated to the lower chamber under each condition. […]

Assay [2] has as its system Jurkat-D3B cells. Kind of assay: SDF-1α induced migration of Jurkat-D3B cells expressing sstr2. In kind it is cell-based, human. As for the experimental part: Methods: Total mRNA was prepared from Panc-1 cells (a human pancreas cell line which is well known to express high levels of sstr2) using the RNAqueous 4PCR kit (Ambion, Cat code #1914) in accordance with the manufacturer's instructions. The mRNA was then reverse transcribed (using the RETROscript kit; Ambio) to yield a cDNA preparation. A full length cDNA of the sstr2 gene was then obtained by PCR (using a Peltier PTC-200 thermal cycler using the following cycle times and conditions: 94°C for 2 min, followed by 30 cycles of 94°C, for 30 sec, 55°C for 30sec, 72°C for 1 min and finally 72°C for 10 min), and isolated by preparative gel electrophoresis. The sequence of the sstr2 cDNA was confirmed by sequencing. The sstr2 cDNA was treated with EcoRI and Xhol to generate sticky ends, which allowed directional cloning into the polylinker of the plasmid pcDNA3.1+ (Invitrogen) followed by ligation (10µl ligation reactions were run with 400 T4 DNA ligase (New England Biolabs) and the maximal amounts of DNA with an insert:plasmid ratio of 3:1 in ligase buffer incubated overnight at 13°C). The resulting vector (see Fig. 13) was used to transform XL-10 Ultracompetent cells (Stratagene) using standard techniques. Plasmid DNA was prepared using a MiniPrep kit (Wizard Plus SV Minipreps DNA purification System; Promega) in accordance with the manufacturer's instructions for transfection into Jurkat T cells.
Jurkat T cells were grown in RPMI + 10% foetal calf serum (FCS), and subcultured by 1:3 dilution in fresh medium every 4 days. Jurkat T cells in logarithmic growth phase 48 hours after subculture were washed by centrifugation and resuspended in serum-free RPMI medium at 7.5 x 10^5 cells per ml. A mixture of DNA and transfection reagent (2µg of DNA; 3µl Fugene 6 transfection reagent; Roche) was then added and the cells were incubated at 37°C for 48 hours. The cells were then washed three times by centrifugation in RPMI + 10% FCS, before being suspended in fresh medium at 1 x 10^5 cells per ml. 68 ml of the resulting cell suspension was then plated out in a total of 226 wells in 96-well plates (Corning). After 48hrs, G418 (0.9mg/ml Active G418) was added to the medium to select for transfectants, and the cells were expanded by repeated subculture, keeping the populations from individual wells (which were considered clonal or oligoclonal expansions) separate. […]
A number of individual cell lines were obtained in this way, which expressed significant levels of sstr2 on the cell surface, detected by flow cytometry using the human-sstr2 antibody (Sigma, S0694; see Example 3 for details of the flow cytometry protocol used). […]

Where [3] appears, read: Table 3, read-out: Human chemokine-induced THP-1 migration assay ED50.
Where [4] appears, read: Table 3, read-out: Human chemokine-induced THP-1 migration assay Max effect (%).

`CCCCCCCCCCC(C)(C)C(=O)N[C@H]1CCCCNC1=O` [BN83250, (S)-3-(2',2'-dimethyldodecanoyl)amino-caprolactam]: in assay [1], the “"Classical" : "BSCI" potency ratio Human” value is recorded as less than 0.00009. The EC50 is 0.09 nM in assay [1] (setting [3]); 0.09 nM in assay [1] (Table 5, library screening hits, read-out: Chemokine-induced THP-1 cell migration assay ("BSCI" target) ED50); less than 1 nM in assay [1] (read-out: ED50 for inhibition of chemokine-induced THP-1 cell migration); roughly 10 nM in assay [2] (Homo sapiens, 100ng/ml SDF-1α, Jurkat-D3B, read-out: ED50 (the source's name)). The Emax in assay [1] (setting [4]) is 100%; in assay [1] (Table 5, read-out: Chemokine-induced THP-1 cell migration assay ("BSCI" target) Max Effect (%)), 100%. The RATIO in assay [1] (Table 5, THP-1 migration ED50 versus insulin suppression ED50) is reported as less than 0.00009. Besides, the “inhibition of SDF-1α induced migration of Jurkat-D3B (in words)” value in assay [2] is listed as “inhibits SDF-1α induced migration”. The “increase in BSCI sensitivity from ectopic expression of sstr2” value in assay [2] (Jurkat-D3B versus parental Jurkat T cells) is given as “more than 100 fold”.
Consider `CC(C)(C)C(=O)N[C@H]1CCCNC1=O` [Valerolactam, (S)-3-(2'2'-dimethylpropionoylamino)-tetrahydropyridin-2-one], for which the “potency as BSCI relative to BN83253” value in assay [1] (Fig. 5 compared with Fig. 4) is on record as 20-50 fold. In assay [1] (setting [3]), the EC50 stood at 0.05 nM. Moreover, in assay [1] (setting [4]), the Emax worked out at 100%. In assay [1] (Table 3, THP-1 migration ED50 versus Panc-2H4 insulin suppression ED50), the “"Classical" : "BSCI" potency ratio Human” value is given as less than 0.00005. Besides, the “inhibition of MCP-1 induced cell migration (in words)” value in assay [1] (figure legends and text) is on record as “inhibits MCP-1 induced cell migration in a dose-dependent manner”. For the same molecule, the “inhibition of SDF-1α induced migration of Jurkat-D3B (in words)” value in assay [2] is “sensitive to inhibition”.

For the origin of these results see patent EP2401611B1, “IMPROVED METHODS FOR IDENTIFICATION” (Cambridge Enterprise Limited, priority 2009, dated 2010).
